Measurements taken from article PMC4267622, “Pin1-mediated Sp1 phosphorylation by CDK1 increases Sp1 stability and decreases its DNA-binding activity during mitosis” (Nucleic Acids Research, 2014).
Blank lines part the entries; values can stand above or below the molecule they belong to.

How the values were obtained:
CDK1/cyclin B1 = experiment: In vitro CDK1/cyclin B1 kinase assay; format: biochemical; conditions: 15 min; for phosphorylation by CDK1 (as substrate): 1 μg Sp1 protein, 50 ng CDK1/cyclin B1, 30°C; for effect on CDK1-mediated Sp1 phosphorylation: substrate GST-Sp1 (619–785), [γ-^32P] ATP, 30°C
Description: For the in vitro phosphorylation analysis, the GST-Sp1(619-785), GST-Sp1(619-785)-T739A, GST-Sp1(619-785)-T739D, GST-Sp1(619-785)-P6, GST-Sp1(619-785)-Z12, GST-Sp1(619-715) or GST-Sp1(619-740) were purified from Escherichia coli BL21 (DE3). These different Sp1 proteins and active CDK1/cyclin B1 (New England Biolabs, Beverly, MA) were used to examine Sp1 phosphorylation in vitro. Each reaction (20 μl) contained 1 μg of purified Sp1, 50 ng of active CDK1/cyclin B1, 2 μCi of [γ-^32P] ATP (GE Healthcare Life Sciences), 1 mM ATP (New England Biolabs) and […] of 10× kinase buffer containing 500 mM HEPES pH 7.4, 10 mM MgCl2, 1 mM EGTA and 1 mM dithiothreitol. The phosphorylation reactions were incubated at 30°C for 15 min. After the incubation, one-half of the reaction was added to 10 μl of 2×electrophoresis sample buffer, which was then heated to 95°C for 5 min. Proteins in the mixtures were immediately separated using SDS-polyacrylamide gel electrophoresis (PAGE).

[1] = system: Sp1-binding probe of p21^WAF1/CIP1 promoter; experiment: DNA affinity precipitation assay (DAPA); conditions: 4°C, 1 h
Description: Cell lysate incubated with 1 μg of binding probes in 500 μl binding of buffer (2 mM MgCl2, 60 mM KCl, 20 mM Tris-HCl pH 7.8, 5% glycerol, 0.5 mM EDTA and 0.02% NP-40). After incubation for 1 h at 4°C, the mixture was incubated with 30 μl of streptavidin-agarose beads (GE Healthcare Life Sciences) for 1 h at 4°C. The mixture was washed three times by binding buffer. The proteins in the beads were eluted by 2X sample buffer and analysed by SDS-PAGE and immunoblotting. The Sp1-binding probe 5′-[…]-3′, localized from −82 to −50 bp within the promoter of p21^WAF1/CIP1, was biotinylated at 5′ termini and then annealed with complementary strands.

mitotic Sp1 = experiment: GST-Pin1 pull-down with HeLa lysates; format: binding; conditions: mitotic HeLa lysate; for interaction with phospho-Sp1(T739): antibody against phospho-Sp1 (T739)
Description: (§1) The mixture was incubated with shaking for 1 h at 4°C. The beads were washed three times in NETN buffer and added to the interphase or mitotic cell extract. The reaction mixture was incubated on ice for 1 h. The beads were then washed in NETN buffer. Proteins were eluted by sample buffer and separated by SDS- PAGE.

JNK1 = experiment: In vitro kinase assay with JNK1; format: biochemical; conditions: substrate GST-Sp1(619-785)
Pin1 [2] = biological target: Pin1 (UniProt Q13526); experiment: isothermal titration calorimetry; conditions: reference: Thr739-Sp1 peptide (unphosphorylated); sites T739
Pin1 [3] = biological target: Pin1 (UniProt Q13526); experiment: co-IP with anti-Pin1, Sp1 blot; conditions: reference: GFP-Sp1 wild type; sites T739
HeLa cells = experiment: Flow cytometry with PI staining (cell cycle); format: cell-based; conditions: nocodazole 16 h
Description: The cells washed by cold PBS and then fixed in 70% alcohol or 4% paraformaldehyde at 4°C for 2 h. After fixation, the cells washed by cold PBS and treated with 0.1% TritonX-100, 10μg/ml RNase and 50 μg/ml propidium iodide for 1 h. The cells were analysed by flow cytometer (Cell Lab Quanta™ SC; Beckman Coulter or FACSCalibur; BD Biosciences).

Pin1 [4] = experiment: Pin1 interaction of Sp1 mutants (anti-Pin1 immunoprecipitation / pull-down); format: binding; conditions: mitotic HeLa lysates / pull-down
Description: Cell lysates were prepared by using mRIPA buffer (50 mM Tris-HCl, pH 7.8, 150 mM NaCl, 5 mM ethylenediaminetetraacetic acid (EDTA), 0.1% Triton-X100, 0.05% NP-40). The lysates were incubated with anti-Sp1 (1:500), anti-CDK1 (1:200), anti-Pin1 (1:250), anti-HA tag (1:250), or anti-GFP tag (1:200) antibodies at 4°C for 1 h. After 1 h incubation, the mixture was incubated with Protein A or G Sepharose agarose beads at 4°C for 1 h. The beads were collected and washed three times by mRIPA buffer. The beads were added 2X electrophoresis sample buffer and analysed by immunoblotting.
as §1

Pin1 [5] = experiment: Co-localization of Sp1 and Pin1 by immunofluorescence in sub-mitotic stages; format: cell-based; conditions: HeLa
Description: The cells were fixed with 4% paraformaldehyde (Sigma-Aldrich) in PBS according to a method described previously ([3]). Immunostaining was conducted with primary antibodies such as anti-Sp1, anti-GFP tag (Santa Cruz Biotechnology, Santa Cruz, CA), or anti-Pin1 (Calbiochem, San Diego, CA) antibodies. The cells were then treated with Alexa Fluor 488-conjugated goat anti-mouse or rabbit immunoglobulin G (IgG) and Alexa Fluor 568-conjugated goat anti-mouse or rabbit IgG polyclonal antibodies (Jackson ImmunoResearch Laboratories Inc., West Grove, PA). Finally, the cells were mounted in 90% glycerol containing 4'-6-diamidino-2-phenylindole (DAPI) (Invitrogen), and examined using a confocal laser-scanning microscope (FluoView^TM FV 1000; Olympus, Melville, NY) or immunofluorescence microscope (Personal DV Applied Precision, Issaquah, WA). The images were analysed with softWoRx software (Applied Precision Inc.).

[6] = biological target: Pin1 (purified, used in ITC) (UniProt Q13526); experiment: ITC; Sp1 peptide (900 mM [sic]) titrated into Pin1 (60 mM [sic]) in the cell; 10 mM HEPES pH 7.5, 100 mM NaCl, 1 mM DTT; 25°C; MicroCal iTC200
GST-Sp1(619-785)-T739D = GST-Sp1(619-785)-T739D (UniProt P08047 619-785, T739D); experiment: DAPA (streptavidin pull-down); no significant difference from GST-Sp1(619-785); DAPA: 1 ug probe in 500 ul 20 mM Tris-HCl pH 7.8, 60 mM KCl, 2 mM MgCl2, 0.5 mM EDTA, 5% glycerol, 0.02% NP-40; 1 h at 4 C, then streptavidin-agarose 1 h at 4 C; conditions: protein: recombinant; tags: GST; label: 5' biotin on S1 strand; blunt
GST-Sp1(619-785) = GST-Sp1(619-785) (UniProt P08047 619-785); experiment: DAPA (streptavidin pull-down); DAPA: 1 ug probe in 500 ul 20 mM Tris-HCl pH 7.8, 60 mM KCl, 2 mM MgCl2, 0.5 mM EDTA, 5% glycerol, 0.02% NP-40; 1 h at 4 C, then streptavidin-agarose 1 h at 4 C; conditions: protein: recombinant; tags: GST; label: 5' biotin on S1 strand; blunt

phosphorylation by CDK1 (as substrate) (CDK1/cyclin B1): No signal was detected
Molecule: GST-Sp1 (619–715): truncated Sp1, amino acids 619–715

Molecule: GST-Sp1 (619–740): truncated Sp1, C-terminus (741–785) ablated
phosphorylation by CDK1 (as substrate) (CDK1/cyclin B1): an increased phosphorylation signal was obtained

phosphorylation by CDK1 (as substrate) (CDK1/cyclin B1): No signal was detected
Molecule: GST-Sp1 (619–785)-T739A: T739A mutant of GST-Sp1 (619–785)

Molecule: GST-Sp1 (619–785)-T739D: mimic phosphorylation form of GST-Sp1 (619–785)
DNA-binding signal ([1]; purified GST-Sp1 proteins, four independent experiments): No significant difference in the DNA-binding signal

Molecule: GST-Sp1 (619–785): truncated Sp1, wild-type C-terminal region
phosphorylation by CDK1 (as substrate) (CDK1/cyclin B1): phosphorylated by CDK1, albeit to a lesser extent

Molecule: GST-WW: recognition motif (WW domain) of Pin1
effect on CDK1-mediated Sp1 phosphorylation (CDK1/cyclin B1): but not Pin1-W34A and Pin1-WW, increased the signal
interaction with phospho-Sp1(T739) (mitotic Sp1): interacted with phospho-Sp1(T739)

Molecule: Pin1-W34A: Pin1 mutated in the recognition domain
effect on CDK1-mediated Sp1 phosphorylation (CDK1/cyclin B1): but not Pin1-W34A and Pin1-WW, increased the signal
interaction with mitotic Sp1 (mitotic Sp1): but not Pin1-W34A, interacted with mitotic Sp1

effect on JNK1 phosphorylation of Sp1 (JNK1): this phosphorylation remained unaffected
Molecule: Pin1: recombinant wild-type Pin1, peptidyl-prolyl isomerase
effect on CDK1-mediated Sp1 phosphorylation (CDK1/cyclin B1): increased the signal of CDK1-mediated Sp1 phosphorylation in a dose dependent manner
interaction with mitotic Sp1 (mitotic Sp1): interacted with mitotic Sp1
interaction with phospho-Sp1(T739) (mitotic Sp1): interacted with phospho-Sp1(T739)

other: Ka (Pin1 [2]): 7.4 M⁻¹
Molecule: Sp1 735-745 (from UniProt P08047) Thr739(p)-Sp1 peptide

binding against the reference (Pin1 [3]): weaker
Molecule: Sp1 (from UniProt P08047) GFP-Sp1 T739A

Molecule: Sp1-4A: Sp1 mutant S720A, T723A, T737A and T739A
cells entered mitosis (HeLa cells): 62%
DNA-binding activity to the p21^CIP/WAP promoter ([1]; mitotic extract of HeLa cells, three independent experiments): increased its DNA-binding activity to the p21^CIP/WAP promoter

Molecule: Sp1-T739A: phosphorylation site mutated Sp1
interaction with Pin1 (Pin1 [4]): decreased interaction with Pin1

Molecule: Sp1-T739D: mimic phosphorylated Sp1
interaction with Pin1 (Pin1 [4]): increased interaction with GST-Pin1

Molecule: Sp1: transcription factor Sp1; endogenous or GFP-Sp1-WT expressed in HeLa cells
Sp1 interaction/co-localization with Pin1 (Pin1 [5]; anaphase (within 20–60 min of nocodazole release)): 93%
Sp1 interaction/co-localization with Pin1 (Pin1 [5]; metaphase (within 20–60 min of nocodazole release)): 91.4%
Sp1 interaction/co-localization with Pin1 (Pin1 [5]; prophase (within 20 min of nocodazole release)): 81.3%

Ka [6]: 7400 M⁻¹
Kd [6]: 50 µM
dH [6]: -6.8 kcal/mol
stoichiometry N [6]: 0.93
Molecule: Thr739(p)-Sp1 peptide (from UniProt P08047 735-745)

B1: p21WAF1/CIP1 promoter Sp1 probe (-82 to -50) (dsDNA)
DNA 1: CCCGCCTCCTTGAGGCGGGCCCGGGCGGGGCGG
DNA 2: CCGCCCCGCCCGGGCCCGCCTCAAGGAGGCGGG
binding result (GST-Sp1(619-785)-T739D): binds
binding result (GST-Sp1(619-785)): binds
